Data set [1] can be described thus: saturated solubility in solvents. In kind it is physicochemical.
For data set [2] the following is noted: topical regional use; relative to piroxicam; cited from earlier work.

The structures appear in SMILES notation. Structures can show the parent of a compound that is named as a salt.

For the compound `O=C(O)Cc1ccccc1Nc1c(Cl)cccc1Cl` [diclofenac acid], in data set [1] (solvent polyethylene glycol), the “saturated solubility in polyethylene glycol” value was found to be 11.18 % w/w. The “saturated solubility in propanol or iso-propanol” value in data set [1] (solvent propanol or iso-propanol) is listed as 3-4%. Further, the “saturated solubility in pure ethanol” value in data set [1] (solvent pure ethanol) amounted to 5 % w/w. As to `O=C(O)Cc1ccccc1Nc1c(Cl)cccc1Cl` [diclofenac], the efficacy index, factor greater than that for piroxicam in data set [2] was ~1000. As to `O=C(O)Cc1ccccc1Nc1c(Cl)cccc1Cl` [sodium salt of diclofenac acid, diclofenac sodium], in data set [1] (solvent propylene glycol), the “saturated solubility in propylene glycol” value is “approximately 50 % w/w”.

Source of the values: patent US8541470B2, “Topical pharmaceutical formulation” (Futura Medical Developments Limited, priority 2007, dated 2013).
